Source: ChEMBL document CHEMBL1201862, “PubChem BioAssay data set” (2004)
“And” between values parts separate entries of the source, which are not always exact repeats. Equal values may be shown once.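 96-well plates; 48 h exposure; 5 concentrations. Endpoints by linear interpolation between flanking doses. Not reached: highest tested concentration assigned. GI50: concentration for 50% inhibition of growth.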 The source made the active and inactive calls. Rule as the data show it: active = GI50 up to about 1.1 µM and inactive = higher.

Assays:
Assay in all cases: DTP human tumour cell line panel, 48 h
SF-539 = test system: SF-539
TK-10 = test system: TK-10
HOP-18 = test system: HOP-18
786-0 = test system: 786-0
RXF 631 = test system: RXF 631
HCT-116 = test system: HCT-116
HOP-92 = test system: HOP-92
DMS-273 = test system: DMS-273
NCI-H226 = test system: NCI-H226
A549 = test system: A549
SNB-19 = test system: SNB-19
SK-MEL-28 = test system: SK-MEL-28
SN12C = test system: SN12C
UO-31 = test system: UO-31
HT-29 = test system: HT-29
SK-MEL-2 = test system: SK-MEL-2
SF-268 = test system: SF-268
M19-MEL = test system: M19-MEL
LOX IMVI = test system: LOX IMVI
KM-20L2 = test system: KM-20L2
NCI-H522 = test system: NCI-H522
UACC-62 = test system: UACC-62
OVCAR-3 = test system: OVCAR-3
MOLT-4 = test system: MOLT-4
SNB-75 = test system: SNB-75
K562 = test system: K562
SK-MEL-5 = test system: SK-MEL-5
SR = test system: SR
ACHN = test system: ACHN
EKVX = test system: EKVX
CAKI-1 = test system: CAKI-1
RPMI-8226 = test system: RPMI-8226
SF-295 = test system: SF-295
KM12 = test system: KM12
CCRF-CEM = test system: CCRF-CEM
M14 = test system: M14
IGROV-1 = test system: IGROV-1
LXFL 529 = test system: LXFL 529
Malme-3M = test system: Malme-3M
NCI-H23 = test system: NCI-H23
UACC-257 = test system: UACC-257
HL-60 = test system: HL-60
U-251 = test system: U-251
XF498 = test system: XF498
DLD-1 = test system: DLD-1
SNB-78 = test system: SNB-78
SW-620 = test system: SW-620
SK-OV-3 = test system: SK-OV-3
OVCAR-8 = test system: OVCAR-8
COLO 205 = test system: COLO 205
RXF 393 = test system: RXF 393
DMS-114 = test system: DMS-114
OVCAR-4 = test system: OVCAR-4
A498 = test system: A498
HOP-62 = test system: HOP-62
HCT-15 = test system: HCT-15
NCI-H460 = test system: NCI-H460
OVCAR-5 = test system: OVCAR-5
HCC 2998 = test system: HCC 2998

`CC(=O)OCC1OC(n2c(=S)n(-c3ccccc3)c(=S)c3ccccc32)C(OC(C)=O)C(OC(C)=O)C1OC(C)=O` (stereo not given) was tested, and the GI50 (SF-539) was 43.9 µM (inactive) and 48.5 µM (inactive), the GI50 (TK-10) was 16.9 µM (inactive) and the GI50 (HOP-18) was 6.87 µM (inactive). The GI50 (786-0) was > 80.9 µM (inactive) and 62.8 µM (inactive), the GI50 (RXF 631) was > 57.3 µM (inactive) and 71.4 µM (inactive) and the GI50 (HCT-116) was > 89.1 µM (inactive) and 57 µM (inactive). For the same molecule, the GI50 (HOP-92) was > 37.7 µM (inactive) and 41.1 µM (inactive).
With `O=[S@@]1Nc2ccc(Br)cc2S1` the GI50 (DMS-273) was 1.73 µM (inactive), the GI50 (NCI-H226) was > 100 µM (inactive) and the GI50 (A549) was 4.56 µM (inactive). The GI50 (SNB-19) was 2.77 µM (inactive), the GI50 (SK-MEL-28) was 4.53 µM (inactive) and the GI50 (SF-539) was 3.94 µM (inactive). For the same molecule, the GI50 (SN12C) was 37.7 µM (inactive), the GI50 (UO-31) was 1.05 µM (active) and the GI50 (HT-29) was 2.13 µM (inactive). The GI50 (SK-MEL-2) was 4.67 µM (inactive), the GI50 (TK-10) was 2.79 µM (inactive) and the GI50 (SF-268) was 2.44 µM (inactive). For the same molecule, the GI50 (M19-MEL) was 3.98 µM (inactive), the GI50 (LOX IMVI) was 0.437 µM (active) and the GI50 (KM-20L2) was 0.294 µM (active). For the same molecule, the GI50 (NCI-H522) was 0.887 µM (active), the GI50 (UACC-62) was 1.07 µM (active) and the GI50 (OVCAR-3) was 31.2 µM (inactive). For the same molecule, the GI50 (786-0) was > 100 µM (inactive), the GI50 (RXF 631) was 3.3 µM (inactive) and the GI50 (MOLT-4) was 6.47 µM (inactive). For the same molecule, the GI50 (SNB-75) was > 100 µM (inactive), the GI50 (K562) was 0.766 µM (active) and the GI50 (HCT-116) was 4.66 µM (inactive). The GI50 (SK-MEL-5) was 12.6 µM (inactive), the GI50 (SR) was 7.14 µM (inactive) and the GI50 (ACHN) was 1.07 µM (active). For the same molecule, the GI50 (EKVX) was 41.6 µM (inactive), the GI50 (CAKI-1) was 1.15 µM (inactive) and the GI50 (RPMI-8226) was > 100 µM (inactive). The GI50 (SF-295) was 40 µM (inactive), the GI50 (KM12) was 2.48 µM (inactive) and the GI50 (CCRF-CEM) was 1.64 µM (inactive). For the same molecule, the GI50 (M14) was 1.4 µM (inactive), the GI50 (IGROV-1) was 53 µM (inactive) and the GI50 (LXFL 529) was 0.282 µM (active). The GI50 (Malme-3M) was 97.3 µM (inactive), the GI50 (NCI-H23) was 25.2 µM (inactive) and the GI50 (UACC-257) was > 100 µM (inactive). For the same molecule, the GI50 (HL-60) was 2.22 µM (inactive), the GI50 (U-251) was 5.18 µM (inactive) and the GI50 (HOP-92) was > 100 µM (inactive). For the same molecule, the GI50 (XF498) was > 100 µM (inactive), the GI50 (DLD-1) was 6.08 µM (inactive) and the GI50 (SNB-78) was > 100 µM (inactive). For the same molecule, the GI50 (SW-620) was 0.74 µM (active) and the GI50 (SK-OV-3) was 22.5 µM (inactive).
For `CCC(=O)c1c(NOC2OCC(OC(C)=O)C(OC(C)=O)C2OC(C)=O)nc(OC)n(C)c1=O` (stereo not given), the GI50 (DMS-273) was > 100 µM (inactive), the GI50 (NCI-H226) was > 100 µM (inactive) and the GI50 (A549) was > 100 µM (inactive). For the same molecule, the GI50 (SNB-19) was > 100 µM (inactive), the GI50 (SK-MEL-28) was > 100 µM (inactive) and the GI50 (SF-539) was > 100 µM (inactive). The GI50 (SN12C) was > 100 µM (inactive), the GI50 (OVCAR-8) was > 100 µM (inactive) and the GI50 (COLO 205) was > 100 µM (inactive). For the same molecule, the GI50 (RXF 393) was > 100 µM (inactive), the GI50 (UO-31) was > 100 µM (inactive) and the GI50 (DMS-114) was > 100 µM (inactive). For the same molecule, the GI50 (HT-29) was > 100 µM (inactive), the GI50 (TK-10) was > 100 µM (inactive) and the GI50 (SF-268) was > 100 µM (inactive). For the same molecule, the GI50 (M19-MEL) was > 100 µM (inactive), the GI50 (LOX IMVI) was > 100 µM (inactive) and the GI50 (KM-20L2) was > 100 µM (inactive). For the same molecule, the GI50 (OVCAR-4) was > 100 µM (inactive), the GI50 (UACC-62) was > 100 µM (inactive) and the GI50 (HOP-18) was < 0.01 µM (active). The GI50 (OVCAR-3) was > 100 µM (inactive), the GI50 (786-0) was > 100 µM (inactive) and the GI50 (MOLT-4) was > 100 µM (inactive). The GI50 (SNB-75) was > 100 µM (inactive), the GI50 (K562) was > 100 µM (inactive) and the GI50 (HCT-116) was > 100 µM (inactive). For the same molecule, the GI50 (SK-MEL-5) was > 100 µM (inactive), the GI50 (SR) was > 100 µM (inactive) and the GI50 (ACHN) was > 100 µM (inactive). The GI50 (EKVX) was > 100 µM (inactive), the GI50 (CAKI-1) was > 100 µM (inactive) and the GI50 (RPMI-8226) was > 100 µM (inactive). The GI50 (SF-295) was > 100 µM (inactive), the GI50 (KM12) was > 100 µM (inactive) and the GI50 (CCRF-CEM) was > 100 µM (inactive). The GI50 (M14) was > 100 µM (inactive), the GI50 (IGROV-1) was > 100 µM (inactive) and the GI50 (LXFL 529) was > 100 µM (inactive). For the same molecule, the GI50 (Malme-3M) was > 100 µM (inactive), the GI50 (A498) was > 100 µM (inactive) and the GI50 (NCI-H23) was > 100 µM (inactive). The GI50 (UACC-257) was > 100 µM (inactive), the GI50 (HL-60) was > 100 µM (inactive) and the GI50 (U-251) was > 100 µM (inactive). For the same molecule, the GI50 (HOP-92) was > 100 µM (inactive), the GI50 (HOP-62) was > 100 µM (inactive) and the GI50 (HCT-15) was greater than 100 µM. The GI50 (XF498) was > 100 µM (inactive), the GI50 (DLD-1) was > 100 µM (inactive) and the GI50 (SNB-78) was > 100 µM (inactive). The GI50 (NCI-H460) was > 100 µM (inactive), the GI50 (SW-620) was > 100 µM (inactive) and the GI50 (SK-OV-3) was > 100 µM (inactive). For the same molecule, the GI50 (OVCAR-5) was > 100 µM (inactive) and the GI50 (HCC 2998) was > 100 µM (inactive).
For `O=S1(=O)c2ccccc2N=C(c2ccccc2Cl)CC1c1ccc(F)cc1` (stereo not given), the GI50 (DMS-273) was 22.3 µM (inactive), the GI50 (A549) was 20 µM (inactive) and the GI50 (SNB-19) was 16.8 µM (inactive). The GI50 (SK-MEL-28) was 18.2 µM (inactive), the GI50 (SF-539) was 20.3 µM (inactive) and the GI50 (SN12C) was 15.2 µM (inactive). The GI50 (OVCAR-8) was 21.5 µM (inactive), the GI50 (COLO 205) was 21.5 µM (inactive) and the GI50 (RXF 393) was 6.68 µM (inactive). For the same molecule, the GI50 (UO-31) was 15.2 µM (inactive), the GI50 (DMS-114) was 19.7 µM (inactive) and the GI50 (SK-MEL-2) was 17.8 µM (inactive). The GI50 (TK-10) was 22.5 µM (inactive), the GI50 (SF-268) was 22.1 µM (inactive) and the GI50 (M19-MEL) was 17.7 µM (inactive). The GI50 (LOX IMVI) was 16.7 µM (inactive), the GI50 (KM-20L2) was 18.6 µM (inactive) and the GI50 (OVCAR-4) was 18.4 µM (inactive). The GI50 (NCI-H522) was 13.6 µM (inactive), the GI50 (UACC-62) was 15.8 µM (inactive) and the GI50 (HOP-18) was 9.62 µM (inactive). The GI50 (OVCAR-3) was 14.3 µM (inactive), the GI50 (786-0) was 16.6 µM (inactive) and the GI50 (MOLT-4) was 13.7 µM (inactive). The GI50 (SNB-75) was 25.5 µM (inactive), the GI50 (K562) was 7.62 µM (inactive) and the GI50 (HCT-116) was 10.8 µM (inactive). For the same molecule, the GI50 (SK-MEL-5) was 16.5 µM (inactive), the GI50 (ACHN) was 18.4 µM (inactive) and the GI50 (EKVX) was 18.1 µM (inactive). The GI50 (CAKI-1) was 14.4 µM (inactive), the GI50 (RPMI-8226) was 3.4 µM (inactive) and the GI50 (SF-295) was 18.2 µM (inactive). For the same molecule, the GI50 (KM12) was 16.5 µM (inactive), the GI50 (CCRF-CEM) was 14.1 µM (inactive) and the GI50 (M14) was 19 µM (inactive). For the same molecule, the GI50 (IGROV-1) was 17.4 µM (inactive), the GI50 (LXFL 529) was 17.8 µM (inactive) and the GI50 (Malme-3M) was 20 µM (inactive). For the same molecule, the GI50 (A498) was 17.5 µM (inactive), the GI50 (NCI-H23) was 17.1 µM (inactive) and the GI50 (UACC-257) was 11.9 µM (inactive). The GI50 (HL-60) was 14.5 µM (inactive), the GI50 (U-251) was 15.1 µM (inactive) and the GI50 (HOP-92) was 17.7 µM (inactive). For the same molecule, the GI50 (HOP-62) was > 10 µM (inactive), the GI50 (HCT-15) was 18.1 µM and the GI50 (XF498) was 15.6 µM (inactive). The GI50 (DLD-1) was 15.2 µM (inactive), the GI50 (SNB-78) was 19.1 µM (inactive) and the GI50 (NCI-H460) was 18.5 µM (inactive). The GI50 (SW-620) was 13.4 µM (inactive), the GI50 (SK-OV-3) was 43.2 µM (inactive) and the GI50 (OVCAR-5) was 15.7 µM (inactive). For the same molecule, the GI50 (HCC 2998) was 14.2 µM (inactive).
